From publication PMC9616048, “Thermal proteome profiling reveals Haemonchus orphan protein HCO_011565 as a target of the nematocidal small molecule UMW-868” (Frontiers in Pharmacology, 2022) come the findings set out here.

For one data set, the system named is eggs of H. contortus. The experiment in a line: Egg hatch assay. Type of data set: cell-based. To be noted: Haemonchus contortus, 48 h; read-out: Egg hatch inhibition (IC50 in µM). The method, then:
Compounds were also assessed for their effect on the hatching of eggs of H. contortus in vitro. To do this, eggs were isolated from the faeces from sheep with patent (30 day-) H. contortus infection by sucrose flotation ([Mes et al., 2007]). Eggs were suspended in H2O at a concentration of one egg per µl. The eggs were dispensed into wells (in triplicate; 100 eggs per well) and incubated with two-fold serial dilutions (9 points from 50 μM to 0.2 µM in H2O) of individual test or control compounds for 48 h at 27°C and >90% relative humidity; wells with no compound were also included. The numbers (percentages) of eggs from which first-stage larvae (L1s) hatched were counted using a light microscope (M80, Leica) at a 40-times magnification. With reference to positive-control compounds (i.e., monepantel and moxidectin), IC50 values of compounds were calculated.

In data set [1] the test system is mitochondria of HepG2 human hepatoma cells. The experiment in a line: Mitochondrial toxicity in HepG2 cells (galactose medium). Type of data set: cell-based. To be noted: HepG2, 48 h. On the procedure:
(§1) The toxicities of compounds on cell and mitochondria were assessed to estimate their half-maximal cytotoxic concentrations (CC50) and half-maximal mitotoxic concentrations (MC50), respectively. HepG2 human hepatoma cells were seeded into wells of a 96-well plate at a density of 5.5 × 10^4 cells per well in 80 µl of Dulbecco’s modified eagle medium (DMEM; with GlutaMax™ cat. no. 10566016 or 4 mM L-glutamine cat. no. 11966025; Thermo Fisher Scientific), supplemented with 25 mM D-glucose (cytotoxicity) or D-galactose (mitotoxicity), 10% (v/v) inactivated foetal bovine serum (iFBS), 100 IU/ml of penicillin, 100 μg/ml of streptomycin and 0.25 μg/ml of amphotericin B (designated DMEM*). Cells were allowed to adhere for 16 h at 37°C and 5% (v/v) CO2 at > 90% relative humidity, then, incubated for 48 h with individual, serially-diluted compounds (two-fold serial dilution in DMEM*; […]) in a final volume of 100 µl. For the assessment of toxicity on mitochondria, cells were starved of serum (DMEM* without iFBS) for 4 h prior to the 48 h-incubation with compounds ([Swiss and Will, 2011]; [Kamalian et al., 2015]). Two positive control compounds, doxorubicin (cytotoxic control) and M-666 (mitotoxic control) were each added to three individual wells in each 96-well plate at a single concentration of 10 µM. DMEM* + 0.25% (v/v) DMSO was added to 12 wells in each plate as negative controls. Monepantel and moxidectin were also serially diluted — prepared in the same manner as test compounds — and used as (“non-toxic”) reference compounds. After 48 h of incubation, cell viability was determined by the crystal violet staining method ([Śliwka et al., 2016]). The absorbance (595 nm) of treated cells was normalised with reference to the negative control (100% viability). To determine the CC50 and MC50 values, compound concentrations were log10-transformed, baseline-corrected using a respective positive control (doxorubicin or M-666) and fitted using a variable slope four-parameter equation with a least squares (ordinary) fit model using GraphPad Prism software (v.9.1.2). Compounds and controls were tested in triplicate.

For data set [2], the system named is H. contortus fourth-stage larvae (L4s) development. The experiment in a line: Dose-response evaluation, L4 development. Type of data set: cell-based, Haemonchus contortus. To be noted: Haemonchus contortus; 168 h, analog series; read-out: L4 development inhibition (IC50 in µM). The method, then: (§2) These evaluations were carried out to estimate the half-maximal inhibitory concentrations (IC50 values) for hit compounds against H. contortus xL3s. With reference to the two positive-control compounds (monepantel and moxidectin), IC50 values for compounds were estimated ([Preston et al., 2015]; [Taki et al., 2021a]) using two-fold serial dilution (in LB*; 9 points from 50 μM to 0.2 µM) in 96-well plates (cat. no. 3596; Corning) with larvae at a density of 300 H. contortus xL3s in 100 µl per well. Plates containing H. contortus xL3s were incubated at 38°C, 10% (v/v) CO2 and >90% relative humidity.
The motility of H. contortus xL3s and L4 development were measured following 168 h of incubation with compound ([Taki et al., 2021a]). Compound concentrations were log10-transformed and fitted using a variable slope four-parameter equation, constraining the highest value to 100% employing a least squares (ordinary) fit model using GraphPad Prism software (v.9.1.2). Compounds were tested by three independent experiments in triplicate. A one-way analysis of variance (ANOVA) with a Tukey’s multiple comparison test or an unpaired t-test was used to establish statistically significant differences in larval motility or development.

The test system of the next data set is H. contortus xL3s. The data set is described as follows: Dose-response evaluation, xL3 motility. It counts as cell-based. To be noted: Haemonchus contortus, 168 h, analog series; read-out: xL3 motility reduction (IC50 in µM). The method, then:
as §2
Compound concentrations were log10-transformed and fitted using a variable slope four-parameter equation, constraining the highest value to 100% employing a least squares (ordinary) fit model using GraphPad Prism software (v.9.1.2). Compounds were tested by three independent experiments in triplicate. A one-way analysis of variance (ANOVA) with a Tukey’s multiple comparison test or an unpaired t-test was used to establish statistically significant differences in larval motility or development.

Data set [3] can be described thus: Cellular toxicity in HepG2 cells (crystal violet). It counts as cell-based, human. The following applies: human, HepG2 human hepatoma cells; HepG2, 48 h; read-out: Cytotoxicity (48 h) CC50. The method, then: as §1
Data set [4] relates to H. contortus xL3 to L4 development. The data set is described as follows: High throughput screen, larval development and phenotype at 168 h. It counts as cell-based, Haemonchus contortus. The following applies: for inhibition at 20 µM: Haemonchus contortus, development to L4. On the procedure: Following the measurement of xL3 motility, plates were incubated again for 78 h (i.e., a total of 168 h) under the same conditions. Thereafter, 40 µl of 1% (v/v) iodine were added to individual wells, and worms examined using a light microscope (M80, Leica) at 60-times magnification to assess larval development, based on the presence/absence of a well-developed pharynx ([Sommerville, 1966]), and/or phenotypic alterations with respect to untreated xL3s.

In data set [5] the test system is exsheathed third-stage larvae (xL3s) of H. contortus. The experiment in a line: High throughput screen, xL3 motility (infrared light beam-interference). The following applies: Haemonchus contortus, 90 h, read-out: Motility reduction at 90 h (%). It counts as cell-based. On the procedure: An established platform was used for compound screening ([Taki et al., 2021a]). Using a semi-automated liquid handling robot (VIAFLO ASSIST PLUS, Integra Biosciences), compounds were individually diluted to […] in LB* containing 0.2% (v/v) DMSO and then dispensed in 20 µl into the wells of sterile 384-well flat bottom microtitre plates (cat. no. 3680; Corning); 320 compounds were arrayed on each plate, with 16 wells being negative controls (with LB* + 0.2% DMSO) and four wells containing each monepantel (Zolvix; Elanco), moxidectin (Cydectin; Virbac), monepantel + abamectin (Zolvix Plus; Elanco) and compound MIPS-0018666 (abbreviated here as M-666) ([Le et al., 2018]) as positive controls (20 µM). Following the dilution and dispensing of compounds into plates, 80 H. contortus xL3s in 20 μl of LB* were transferred to individual wells; after this step, the final concentrations were 20 µM of test- or positive-control compound, and 0.2% of DMSO. During dispensing, xL3s were maintained in a homogenous suspension using a constant stream of bubbles produced employing an aquarium pump (H2Pro). Plates containing H. contortus xL3s were incubated at 38 °C, 10% (v/v) CO2 and >90% relative humidity.
After 90 h of incubation with compounds (20 μM), H. contortus xL3s motility was measured for 15 min in individual wells of each plate by infrared light beam-interference ([Simonetta and Golombek, 2007]) using a WMicroTracker ONE instrument (Phylumtech). Raw data captured were normalised against measurements obtained for the positive (monepantel) and negative (LB* + 0.2% DMSO) controls to remove plate-to-plate variation by calculating the percentage of motility using the program GraphPad Prism (v.9.1.2; GraphPad Software). A compound was considered active (“hit”) if it reduced larval motility by ≥ 70%. To continually assess the performance of the screening assay, the Z′-factor ([Zhang et al., 1999]) was calculated (using data for the DMSO and the M-666 controls) for individual plates (n = 43) and was consistently ≥0.7; reliable assays achieve a Z′-factor of between 0.5 and 1. The signal to background (S/B) ratio (for the same controls) ([Sui and Wu, 2007]) was consistently >200.

For the molecule `CCCc1ccc(-c2nc(-c3ccccc3)no2)cc1` [Compound A-3126], the IC50 (in general, the concentration needed to halve the response being measured) in the data set on eggs of H. contortus stood at 13.1 µM; in data set [2] it was 50 µM; with H. contortus xL3s it was 12.1 µM. For the same molecule, the “Mitotoxicity (48 h) MC50” value in data set [1] is above 50.0 µM. In addition, in data set [3], the CC50 – broadly, the concentration giving 50% cytotoxicity – at 48 h was above 50 µM.

`CCOc1ccc(-c2nc(-c3cccs3)no2)cc1` [Compound A-3134]: the IC50 in the data set on eggs of H. contortus is above 50 µM; in data set [2], above 50 µM; in the data set on H. contortus xL3s, 7.8 µM. Moreover, the “Mitotoxicity (48 h) MC50” value in data set [1] was above 50.0 µM. Further, the CC50 at 48 h in data set [3] is above 50 µM.

In the case of `CCCc1ccc(-c2nc(-c3ccc(C)cc3)no2)cc1` [Compound A-3136], the results for the IC50 (in the data set with eggs of H. contortus; in data set [2]; in the data set with H. contortus xL3s) were 7.5 µM, 12.5 µM and 4.8 µM, respectively. Further, in data set [1], the “Mitotoxicity (48 h) MC50” value is above 50.0 µM. Besides, in data set [3], the CC50 at 48 h was above 50 µM.

As for `FC(F)Oc1ccc(-c2nc(-c3cccs3)no2)cc1` [Compound A-4340, 5-(4-(Difluoromethoxy)phenyl)-3-(thiophen-2-yl)-1,2,4-oxadiazole], the values for the IC50 (with eggs of H. contortus; in data set [2]; with H. contortus xL3s) were above 50 µM, 25 µM and 4 µM, respectively. The “Mitotoxicity (48 h) MC50” value in data set [1] is above 50.0 µM. Moreover, in data set [3], the CC50 at 48 h was above 50 µM.

Take `c1ccc(-c2nc(-c3cccs3)no2)cc1` [Compound A-4347, 5-Phenyl-3-(thiophen-2-yl)-1,2,4-oxadiazole]: the IC50 (in the data set on eggs of H. contortus; in data set [2]; in the data set with H. contortus xL3s) was above 50 µM in each case. Moreover, the “Mitotoxicity (48 h) MC50” value in data set [1] was above 50.0 µM. Moreover, the CC50 at 48 h in data set [3] was above 50 µM.

For `FC(F)(F)Oc1ccc(-c2nc(-c3cccs3)no2)cc1` [Compound A-6316, 3-(Thiophen-2-yl)-5-(4-(trifluoromethoxy)phenyl)-1,2,4-oxadiazole], the IC50 with eggs of H. contortus is above 50 µM; in data set [2], above 50 µM; with H. contortus xL3s, 9.8 µM. In addition, the “Mitotoxicity (48 h) MC50” value in data set [1] is above 50.0 µM. The cytotoxic concentration (CC50) at 48 h in data set [3] was above 50 µM.

Regarding `CCCc1ccc(-c2nc(-c3ccc(OC)cc3)no2)cc1` [Compound A-6318, 3-(4-Methoxyphenyl)-5-(4-propylphenyl)-1,2,4-oxadiazole], the IC50 stood at 38 µM in the data set with eggs of H. contortus, 1.6 µM in data set [2] and 1.4 µM in the data set with H. contortus xL3s. In addition, the “Mitotoxicity (48 h) MC50” value in data set [1] came to 48.2 µM. Further, in data set [3], the CC50 at 48 h is above 50 µM.

Regarding `FC(F)Oc1ccc(-c2nc(-c3ccc(C(F)(F)F)cc3)no2)cc1` [Compound A-6325, 5-(4-(Difluoromethoxy)phenyl)-3-(4-(trifluoromethyl)phenyl)-1,2,4-oxadiazole], the IC50 is above 50 µM with eggs of H. contortus, 3.1 µM in data set [2] and 1.4 µM in the data set with H. contortus xL3s. Also, the “Mitotoxicity (48 h) MC50” value in data set [1] was determined as 36.3 µM. Besides, the CC50 at 48 h in data set [3] was above 50 µM.

For the molecule `CCCc1ccc(-c2nc(-c3ccc(C(F)(F)F)cc3)no2)cc1` [Compound A-6501], the values for the IC50 (in the data set on eggs of H. contortus; in data set [2]; in the data set on H. contortus xL3s) were above 50 µM, 6.3 µM and 1.6 µM, respectively. Also, the “Mitotoxicity (48 h) MC50” value in data set [1] is above 50.0 µM. Further, the CC50 at 48 h in data set [3] is above 50 µM.

As to `c1ccc(COc2ccc(CCC3OCCO3)cc2)cc1` [MBHF-hit32, 2-[4-(benzyloxy)phenethyl]-1,3-dioxolane], the inhibition at 20 µM in data set [4] was below 80%; in data set [5], 71.1%.

Take `FC(F)(F)c1ccc(SCc2ccc(-c3ncns3)cc2)nc1` [MBHF-hit33, 5-[4-({[5-(trifluoromethyl)-2-pyridyl]thio}methyl)phenyl]-1,2,4-thiadiazole]: the “Abnormal phenotype detected at 168 h” value in data set [4] (20 µM) was “Cur, Evi”. Also, the inhibition at 20 µM was 80 to 99% in data set [4] and 70.3% in data set [5].

Turning to `CSC(=NS(=O)(=O)c1ccc(C)cc1)N(C)C` [MBHF-hit34, N1-[(dimethylamino)(methylthio)methylidene]-4-methylbenzene-1-sulfonamide], the inhibition at 20 µM is below 80% in data set [4] and 70.3% in data set [5].

As for `OC(CNCCNc1nccc(C(F)(F)F)n1)c1ccccc1` (centres unmarked) [MBHF-hit35, 1-phenyl-2-[(2-{[4-(trifluoromethyl)pyrimidin-2-yl]amino}ethyl)amino]ethan-1-ol], the results for the inhibition at 20 µM in data set [4] and in data set [5] were below 80% and 70.2%, respectively.

In the case of `CCOC(=O)c1ccc(Oc2ccc(Cl)cc2Cl)c([N+](=O)[O-])c1` [MBHF-hit36, ethyl 4-(2,4-dichlorophenoxy)-3-nitrobenzoate], the inhibition at 20 µM was below 80% in data set [4] and 70.2% in data set [5].
